Assay results as given in publication PMC12297698 (Scientific Reports, 2025).

Molecular target: T1, Caspase-3 (Recombinant human Caspase-3 protein (Active)) (Homo sapiens, UniProt P42574)
T1 sequence (P42574 29-175): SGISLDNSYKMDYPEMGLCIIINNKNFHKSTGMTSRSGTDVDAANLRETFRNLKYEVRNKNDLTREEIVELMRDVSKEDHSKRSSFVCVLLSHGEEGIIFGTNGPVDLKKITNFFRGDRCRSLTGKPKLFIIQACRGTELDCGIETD
T1 sequence (P42574 176-277): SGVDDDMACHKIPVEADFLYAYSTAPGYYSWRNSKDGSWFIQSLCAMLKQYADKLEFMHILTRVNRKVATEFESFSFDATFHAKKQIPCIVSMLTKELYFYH
Experiment: SPR, Biacore T200, CM5 chip, immobilised caspase-3
Assay type: binding

How did the Kd turn out when OC[C@H]1O[C@@H](OCCc2ccc(O)cc2)[C@H](O)[C@@H](O)[C@@H]1O [Salidroside] was run?
The Kd was 76.7 µM.
